Measured values from patent US12473328.
Read-outs that look alike come from different tables or passages of the source.

Tests used:
[1] = resin
[2] = disulfide bond; 44-membered ring; resin; 3 steps
[3] = crosslinker bond, 30-membered ring
[4] = disulfide bond, 20-membered ring

Substance: H-ACREGFLRCLHRPTVCNG-H2
- ring closure, conversion ([1]; crosslinker bond, 31-membered ring): 99%

Substance: H-ACSWPARCLHQDLCA-NH2
- ring closure, conversion [1, 3]: 99%

Substance: H-ACYNEFGCEDFYDICA-NH2
- ring closure, conversion [1, 3]: 99%

Substance: H-CRVPGDAHHADSLC-NH2
- ring closure, conversion ([1]; crosslinker bond, 49-membered ring): 99%
- ring closure, conversion ([1]; disulfide bond, 44-membered ring): 22%
- ring closure, crude yield [2]: 22%

Substance: H-CYFQNCPRG-NH2
- ring closure, conversion [1, 4]: 95%

Substance: H-KCNTATCATQRLANFLVHSSNFGPILPPTNVGSNTY-NH2
- ring closure, conversion [1, 4]: 99%

Substance: H-VRCPGAAHHADSLC-NH2
- ring closure, conversion ([1]; disulfide bond, 38-membered ring): 99%

Substance: H-VRVPGCAHCADSLY-NH2
- ring closure, conversion ([1]; crosslinker bond, 19-membered ring): 99%
